# From patent US20230233469A1, “SEMI-SOLID FORMULATION FOR VOLUNTARY ORAL ADMINISTRATION OF BIOACTIVE COMPOUNDS TO RODENTS” (priority 2020, published 2023)
# Details: 80 mg/Kg body weight in semi-solid pill
# Excerpt: Data are presented as mean±S.E.M. (n=6-8 experimental group).
compound,measurement,value
CC(=O)CC(c1ccccc1)c1c(O)c2ccccc2oc1=O (centres unmarked) [warfarin],day of euthanasia for critical signs of illness (e.g. bleeding),8 days
same,day post-administration from which poor health status and evident signs of toxicity appeared,4 days
